Values joined by “and” are separate entries in the source; they are usually repeats but may differ in a detail not shown here. Equal values may be shown once.
Experiment: xn = mol fraction of the nth substance listed
Settings: 100 kPa; for electrical conductivity: Alternating current cell with electrodes; for viscosity: Concentric cylinders viscometry; for mass density: Vibrating tube method

CCCCCCCCOS(=O)(=O)[O-].CCn1cc[n+](C)c1 [1-ethyl-3-methylimidazolium octyl sulfate] + O
Settings | electrical conductivity | mass density | viscosity
287.1 K, Liquid, x1 = 0.1402 | – | 1076.8 kg/m3 | –
287.1 K, Liquid, x1 = 0.1605 | – | 1079.2 kg/m3 | –
287.1 K, Liquid, x1 = 0.2632 | – | 1088.7 kg/m3 | –
287.1 K, Liquid, x1 = 0.3076 | 0.375 S/m and 0.377 S/m | 1091.2 kg/m3 | 169.3 mPa·s
287.6 K, Glass, x1 = 0.2632 | 0.469 S/m | – | 10720 mPa·s and 11920 mPa·s
287.6 K, Liquid, x1 = 0.2632 | – | 1088.5 kg/m3 and 1088.8 kg/m3 | –
288.1 K, Glass, x1 = 0.1402 | – | – | 1042 mPa·s
288.1 K, Glass, x1 = 0.1605 | – | – | 13780 mPa·s and 15800 mPa·s
288.1 K, Glass, x1 = 0.1766 | 0.844 S/m and 0.846 S/m | – | –
288.1 K, Glass, x1 = 0.2119 | 0.682 S/m and 0.681 S/m | – | –
288.1 K, Glass, x1 = 0.2632 | 0.48 S/m and 0.478 S/m | – | 8600 mPa·s
288.1 K, Liquid, x1 = 0.0401 | 1.7 S/m | – | –
288.1 K, Liquid, x1 = 0.0586 | 1.67 S/m | – | –
288.1 K, Liquid, x1 = 0.0803 | 1.51 S/m | – | –
288.1 K, Liquid, x1 = 0.1197 | – | 1072.5 kg/m3 | 78.76 mPa·s
288.1 K, Liquid, x1 = 0.1402 | 1.03 S/m | 1076 kg/m3 | –
288.1 K, Liquid, x1 = 0.1605 | 0.932 S/m and 0.934 S/m | 1078.8 kg/m3 and 1078.7 kg/m3 | –
288.1 K, Liquid, x1 = 0.2632 | – | 1088.3 kg/m3 | –
288.1 K, Liquid, x1 = 0.3076 | 0.389 S/m and 0.388 S/m | 1090.5 kg/m3 | 159.4 mPa·s
288.1 K, Liquid, x1 = 0.3555 | 0.293 S/m and 0.294 S/m | 1092.7 kg/m3 | 183.7 mPa·s
288.1 K, Liquid, x1 = 0.4108 | 0.24 S/m and 0.237 S/m | 1094.5 kg/m3 | 206.8 mPa·s
288.1 K, Liquid, x1 = 0.4688 | 0.166 S/m and 0.159 S/m | – | –
288.1 K, Liquid, x1 = 0.5001 | 0.15 S/m | – | –
288.6 K, Glass, x1 = 0.2632 | 0.485 S/m | – | –
289.1 K, Glass, x1 = 0.1402 | – | – | 396.1 mPa·s
289.1 K, Glass, x1 = 0.1605 | – | – | 8364 mPa·s and 8406 mPa·s
289.1 K, Glass, x1 = 0.1766 | 0.868 S/m and 0.871 S/m | – | –
289.1 K, Glass, x1 = 0.2632 | 0.489 S/m | – | 3435 mPa·s
289.1 K, Liquid, x1 = 0.1197 | 1.21 S/m | – | –
289.1 K, Liquid, x1 = 0.1402 | 1.06 S/m | 1074.9 kg/m3 | –
289.1 K, Liquid, x1 = 0.1605 | 0.964 S/m and 0.963 S/m | 1078.4 kg/m3 | –
289.1 K, Liquid, x1 = 0.2632 | 0.494 S/m | 1087.8 kg/m3 | –
289.1 K, Liquid, x1 = 0.3076 | – | 1089.8 kg/m3 | 150 mPa·s
289.6 K, Glass, x1 = 0.2632 | – | – | 1082 mPa·s
289.6 K, Liquid, x1 = 0.2632 | 0.503 S/m | 1087.9 kg/m3 | –
290.1 K, Glass, x1 = 0.1402 | – | – | 213.6 mPa·s
290.1 K, Glass, x1 = 0.1605 | – | – | 5299 mPa·s and 4500 mPa·s
290.1 K, Glass, x1 = 0.1766 | 0.895 S/m and 0.899 S/m | – | –
290.1 K, Glass, x1 = 0.2119 | 0.728 S/m | – | –
290.1 K, Liquid, x1 = 0.1402 | – | 1074.2 kg/m3 | –
290.1 K, Liquid, x1 = 0.1605 | – | 1077.9 kg/m3 and 1078 kg/m3 | –
290.1 K, Liquid, x1 = 0.2632 | 0.511 S/m | – | –
290.1 K, Liquid, x1 = 0.3076 | – | 1089.1 kg/m3 | 141.3 mPa·s
291.1 K, Glass, x1 = 0.1402 | – | – | 122.8 mPa·s
291.1 K, Glass, x1 = 0.1605 | – | – | 2756 mPa·s and 2752 mPa·s
291.1 K, Glass, x1 = 0.1766 | 0.924 S/m and 0.925 S/m | – | –
291.1 K, Glass, x1 = 0.2119 | 0.759 S/m and 0.757 S/m | – | –
291.1 K, Liquid, x1 = 0.0803 | 1.63 S/m | – | –
291.1 K, Liquid, x1 = 0.1402 | 1.12 S/m | 1073.7 kg/m3 | –
291.1 K, Liquid, x1 = 0.1605 | 1.02 S/m | 1077.5 kg/m3 | –
291.1 K, Liquid, x1 = 0.2632 | 0.527 S/m | 1085.5 kg/m3 | 118.9 mPa·s
291.1 K, Liquid, x1 = 0.3076 | 0.441 S/m and 0.442 S/m | 1088.1 kg/m3 | 133.1 mPa·s
291.1 K, Liquid, x1 = 0.3555 | 0.332 S/m | – | –
291.1 K, Liquid, x1 = 0.4108 | 0.271 S/m | – | –
291.1 K, Liquid, x1 = 0.4688 | 0.192 S/m | – | –
292.1 K, Glass, x1 = 0.1605 | – | – | 1353 mPa·s and 597.3 mPa·s
292.1 K, Glass, x1 = 0.1766 | 0.951 S/m and 0.953 S/m | – | –
292.1 K, Glass, x1 = 0.2119 | 0.779 S/m and 0.781 S/m | – | –
292.1 K, Liquid, x1 = 0.1402 | – | 1073.2 kg/m3 | 80.8 mPa·s
292.1 K, Liquid, x1 = 0.1605 | – | 1076.9 kg/m3 and 1076.7 kg/m3 | –
292.1 K, Liquid, x1 = 0.2632 | 0.543 S/m | – | –
293.1 K, Glass, x1 = 0.1605 | – | – | 589.1 mPa·s and 232.2 mPa·s
293.1 K, Glass, x1 = 0.1766 | 0.977 S/m and 0.979 S/m | – | –
293.1 K, Glass, x1 = 0.2119 | 0.805 S/m | – | –
293.1 K, Liquid, x1 = 0.0401 | 1.92 S/m | – | –
293.1 K, Liquid, x1 = 0.0586 | 1.91 S/m | – | –
293.1 K, Liquid, x1 = 0.0803 | 1.72 S/m | – | –
293.1 K, Liquid, x1 = 0.1197 | 1.36 S/m | – | 59.82 mPa·s
293.1 K, Liquid, x1 = 0.1402 | 1.19 S/m | – | 69.89 mPa·s
293.1 K, Liquid, x1 = 0.1605 | 1.08 S/m | – | –
293.1 K, Liquid, x1 = 0.2119 | 0.804 S/m | – | –
293.1 K, Liquid, x1 = 0.2632 | 0.564 S/m and 0.562 S/m | – | 106.4 mPa·s
293.1 K, Liquid, x1 = 0.3076 | 0.477 S/m and 0.479 S/m | – | 117.6 mPa·s
293.1 K, Liquid, x1 = 0.3555 | 0.357 S/m and 0.359 S/m | – | –
293.1 K, Liquid, x1 = 0.4108 | 0.294 S/m and 0.293 S/m | – | –
293.1 K, Liquid, x1 = 0.4688 | 0.214 S/m | – | –
293.1 K, Liquid, x1 = 0.5001 | 0.19 S/m and 0.191 S/m | – | –

— the NIST ThermoML archive (doi:10.1016/j.jct.2014.04.016)
